# Assay results taken from the supplement of paper PMC10307832.
# Experiments:
# Assay in all cases: relative viability (nuclei count vs DMSO), 5 days (fraction); higher = more cells survive
# Tozasertib = compound: Cc1cc(Nc2cc(N3CCN(C)CC3)nc(Sc3ccc(NC(=O)C4CC4)cc3)n2)n[nH]1 [Tozasertib]
# How it was run: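 Nuclei counted with MetaXpress define viability as the ratio of treated to vehicle wells, given as a median across plates. The lung cancer cell lines were in 1536-well plates, pinned with five √10-spaced library-drug doses and imaged at 4× after 5 days and Hoechst staining. Plates passed with control CV below 25% and at least one doubling.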
# Tozasertib + Phenformin = compound: Cc1cc(Nc2cc(N3CCN(C)CC3)nc(Sc3ccc(NC(=O)C4CC4)cc3)n2)n[nH]1 [Tozasertib] + N=C(N)NC(=N)NCCc1ccccc1 [Phenformin] (partner 250 µM)
# How it was run: (§1)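 Five library-drug doses in √10 steps were combined with a fixed anchor-drug dose, or a single drug was given alone, by pin tool to lung cancer cell lines in 1536-well plates the day after seeding. Nuclei were stained and counted after 5 days. Relative viability is the nuclei count in treated wells over that in vehicle wells, taken as the median of duplicate plates.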
# Tozasertib + Olaparib = compound: Cc1cc(Nc2cc(N3CCN(C)CC3)nc(Sc3ccc(NC(=O)C4CC4)cc3)n2)n[nH]1 [Tozasertib] + O=C(c1cc(Cc2n[nH]c(=O)c3ccccc23)ccc1F)N1CCN(C(=O)C2CC2)CC1 [Olaparib] (partner 8 µM)
# How it was run: as §1
# Tozasertib + Linsitinib = compound: Cc1cc(Nc2cc(N3CCN(C)CC3)nc(Sc3ccc(NC(=O)C4CC4)cc3)n2)n[nH]1 [Tozasertib] + C[C@]1(O)C[C@@H](c2nc(-c3ccc4ccc(-c5ccccc5)nc4c3)c3c(N)nccn32)C1 [Linsitinib] (partner 1 µM)
# How it was run: as §1
# Tozasertib + Crizotinib = compound: Cc1cc(Nc2cc(N3CCN(C)CC3)nc(Sc3ccc(NC(=O)C4CC4)cc3)n2)n[nH]1 [Tozasertib] + C[C@@H](Oc1cc(-c2cnn(C3CCNCC3)c2)cnc1N)c1c(Cl)ccc(F)c1Cl [Crizotinib] (partner 1 µM)
# How it was run: as §1
# Tozasertib + Alpelisib = compound: Cc1cc(Nc2cc(N3CCN(C)CC3)nc(Sc3ccc(NC(=O)C4CC4)cc3)n2)n[nH]1 [Tozasertib] + Cc1nc(NC(=O)N2CCC[C@H]2C(N)=O)sc1-c1ccnc(C(C)(C)C(F)(F)F)c1 [Alpelisib] (partner 2 µM)
# How it was run: as §1
# Tozasertib + Pictilisib = compound: Cc1cc(Nc2cc(N3CCN(C)CC3)nc(Sc3ccc(NC(=O)C4CC4)cc3)n2)n[nH]1 [Tozasertib] + CS(=O)(=O)N1CCN(Cc2cc3nc(-c4cccc5[nH]ncc45)nc(N4CCOCC4)c3s2)CC1 [Pictilisib] (partner 1 µM)
# How it was run: as §1
# Tozasertib + Decitabine = compound: Cc1cc(Nc2cc(N3CCN(C)CC3)nc(Sc3ccc(NC(=O)C4CC4)cc3)n2)n[nH]1 [Tozasertib] + Nc1ncn([C@H]2C[C@H](O)[C@@H](CO)O2)c(=O)n1 [Decitabine] (partner 2 µM)
# How it was run: as §1
# Tozasertib + Lapatinib = compound: Cc1cc(Nc2cc(N3CCN(C)CC3)nc(Sc3ccc(NC(=O)C4CC4)cc3)n2)n[nH]1 [Tozasertib] + CS(=O)(=O)CCNCc1ccc(-c2ccc3ncnc(Nc4ccc(OCc5cccc(F)c5)c(Cl)c4)c3c2)o1 [Lapatinib] (partner 2 µM)
# How it was run: as §1
# Tozasertib + Navitoclax = compound: Cc1cc(Nc2cc(N3CCN(C)CC3)nc(Sc3ccc(NC(=O)C4CC4)cc3)n2)n[nH]1 [Tozasertib] + CC1(C)CCC(c2ccc(Cl)cc2)=C(CN2CCN(c3ccc(C(=O)NS(=O)(=O)c4ccc(N[C@H](CCN5CCOCC5)CSc5ccccc5)c(S(=O)(=O)C(F)(F)F)c4)cc3)CC2)C1 [Navitoclax] (partner 0.5 µM)
# How it was run: as §1
# Tozasertib + Foretinib = compound: Cc1cc(Nc2cc(N3CCN(C)CC3)nc(Sc3ccc(NC(=O)C4CC4)cc3)n2)n[nH]1 [Tozasertib] + COc1cc2c(Oc3ccc(NC(=O)C4(C(=O)Nc5ccc(F)cc5)CC4)cc3F)ccnc2cc1OCCCN1CCOCC1 [Foretinib] (partner 0.25 µM)
# How it was run: as §1
cell line,measurement,setting,value
A549,relative viability,Tozasertib; 0.004 µM,1.02
same,relative viability,Tozasertib; 0.01265 µM,0.982
same,relative viability,Tozasertib; 0.04 µM,1.05
same,relative viability,Tozasertib; 0.1265 µM,0.488
same,relative viability,Tozasertib + Phenformin; first compound 0.004 µM,0.117
same,relative viability,Tozasertib + Phenformin; first compound 0.01265 µM,0.161
same,relative viability,Tozasertib + Phenformin; first compound 0.04 µM,0.169
same,relative viability,Tozasertib + Phenformin; first compound 0.1265 µM,0.0581
same,relative viability,Tozasertib + Olaparib; first compound 0.004 µM,0.2
same,relative viability,Tozasertib + Olaparib; first compound 0.01265 µM,0.324
same,relative viability,Tozasertib + Olaparib; first compound 0.04 µM,0.313
same,relative viability,Tozasertib + Olaparib; first compound 0.1265 µM,0.13
same,relative viability,Tozasertib + Linsitinib; first compound 0.004 µM,0.461
same,relative viability,Tozasertib + Linsitinib; first compound 0.01265 µM,0.511
same,relative viability,Tozasertib + Linsitinib; first compound 0.04 µM,0.71
same,relative viability,Tozasertib + Linsitinib; first compound 0.1265 µM,0.33
same,relative viability,Tozasertib + Crizotinib; first compound 0.004 µM,0.839
same,relative viability,Tozasertib + Crizotinib; first compound 0.01265 µM,0.745
same,relative viability,Tozasertib + Crizotinib; first compound 0.04 µM,0.393
same,relative viability,Tozasertib + Crizotinib; first compound 0.1265 µM,0.0848
same,relative viability,Tozasertib + Alpelisib; first compound 0.004 µM,0.686
same,relative viability,Tozasertib + Alpelisib; first compound 0.01265 µM,0.826
same,relative viability,Tozasertib + Alpelisib; first compound 0.04 µM,0.759
same,relative viability,Tozasertib + Alpelisib; first compound 0.1265 µM,0.211
same,relative viability,Tozasertib + Pictilisib; first compound 0.004 µM,0.529
same,relative viability,Tozasertib + Pictilisib; first compound 0.01265 µM,0.463
same,relative viability,Tozasertib + Pictilisib; first compound 0.04 µM,0.517
same,relative viability,Tozasertib + Pictilisib; first compound 0.1265 µM,0.0954
same,relative viability,Tozasertib + Decitabine; first compound 0.004 µM,0.27
same,relative viability,Tozasertib + Decitabine; first compound 0.01265 µM,0.266
same,relative viability,Tozasertib + Decitabine; first compound 0.04 µM,0.282
same,relative viability,Tozasertib + Decitabine; first compound 0.1265 µM,0.199
same,relative viability,Tozasertib + Lapatinib; first compound 0.004 µM,1.04
same,relative viability,Tozasertib + Lapatinib; first compound 0.01265 µM,0.859
same,relative viability,Tozasertib + Lapatinib; first compound 0.04 µM,0.835
same,relative viability,Tozasertib + Lapatinib; first compound 0.1265 µM,0.0927
same,relative viability,Tozasertib + Navitoclax; first compound 0.004 µM,1.26
same,relative viability,Tozasertib + Navitoclax; first compound 0.01265 µM,1.29
same,relative viability,Tozasertib + Navitoclax; first compound 0.04 µM,1.14
same,relative viability,Tozasertib + Navitoclax; first compound 0.1265 µM,0.179
same,relative viability,Tozasertib + Foretinib; first compound 0.01265 µM,0.823
same,relative viability,Tozasertib + Foretinib; first compound 0.04 µM,0.871
same,relative viability,Tozasertib + Foretinib; first compound 0.1265 µM,0.251
